Data taken from ChEMBL document CHEMBL1201862, “PubChem BioAssay data set” (2004).
Activity calls are given as the source filed them.

Tests used:
[1] = target: Latent membrane protein 1 (Human herpesvirus 4 (strain B95-8), UniProt P03230); test: LMP1 TES1 pathway selectivity over dsRED control – imaging, HEK293T, dual-color eGFP/dsRED, cherry-picks, selectivity assay for LMP1 NF-kB inhibitor project, dose response (AID 588398); format: functional, cell-based
[2] = target: Disintegrin and metalloproteinase domain-containing protein 17 (Homo sapiens, UniProt P78536); test: exosite inhibitors of ADAM17, dose response, biochemical (AID 743260)
Sequence of Disintegrin and metalloproteinase domain-containing protein 17 (P78536 whole entry, the tested form may be a part): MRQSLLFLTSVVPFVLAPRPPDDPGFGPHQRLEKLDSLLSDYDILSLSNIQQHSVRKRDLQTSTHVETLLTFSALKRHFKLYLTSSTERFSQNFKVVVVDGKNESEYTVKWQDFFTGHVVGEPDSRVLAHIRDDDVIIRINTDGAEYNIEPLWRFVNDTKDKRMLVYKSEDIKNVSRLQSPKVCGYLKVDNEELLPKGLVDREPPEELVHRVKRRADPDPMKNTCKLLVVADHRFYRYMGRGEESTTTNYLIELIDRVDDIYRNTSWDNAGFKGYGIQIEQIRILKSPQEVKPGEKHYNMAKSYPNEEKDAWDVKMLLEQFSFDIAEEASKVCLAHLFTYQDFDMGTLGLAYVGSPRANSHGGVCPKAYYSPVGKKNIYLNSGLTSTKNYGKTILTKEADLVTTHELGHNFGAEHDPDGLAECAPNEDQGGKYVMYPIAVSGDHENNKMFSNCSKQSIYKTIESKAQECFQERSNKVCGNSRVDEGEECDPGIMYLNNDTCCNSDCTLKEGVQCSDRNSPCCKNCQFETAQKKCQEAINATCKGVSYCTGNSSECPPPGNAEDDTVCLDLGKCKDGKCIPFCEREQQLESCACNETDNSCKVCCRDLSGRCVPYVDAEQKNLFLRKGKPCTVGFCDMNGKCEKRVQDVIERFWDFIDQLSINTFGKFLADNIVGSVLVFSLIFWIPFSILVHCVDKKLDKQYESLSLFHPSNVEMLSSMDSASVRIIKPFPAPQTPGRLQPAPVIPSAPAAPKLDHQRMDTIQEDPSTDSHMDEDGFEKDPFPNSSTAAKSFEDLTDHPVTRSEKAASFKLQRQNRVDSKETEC

[3] = inhibition of ADAM10 peptide cleavage – biochemical, FRET peptide substrate, recombinant human ADAM10, selectivity assay for ADAM17 exosite inhibitor project, dose response (AID 743259);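 further: ADAM10 enzyme cleaving a FRET peptide substrate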
[4] = THP-1 cell cytotoxicity, dose response, cytotoxicity control for non-replicating M. tuberculosis project (AID 489025); format: functional
[5] = Vero E6 cell cytotoxicity, dose response, cytotoxicity control for non-replicating M. tuberculosis project, secondary assay (AID 492998); format: functional, VeroE6; settings: Vero C1008
cells = format: functional
CHO = CHO cell viability loss, potency – luminescence, cytotoxicity control for TLR9-MyD88 binding inhibitor project, dose response (AID 588339); format: functional, cell-based, hamster; settings: Cricetulus griseus;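 further: CHO cells stably coexpressing TLR9 and MyD88 fusions from primary screen; compound exposure lasted 48 hours before viability readout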
Beta Lactamase = Beta Lactamase (Pseudomonas aeruginosa, UniProt Q932Y6); test: BLA reporter interference, concentration series – BLA reporter cells, FRET fluorescence, artefact control for TLR9-MyD88 binding inhibitor project, dose response (AID 588341); format: cell-based;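 further: cell based assay in CHO-K1 cells stably expressing beta-lactamase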
Sequence of Beta Lactamase (Q932Y6 whole entry): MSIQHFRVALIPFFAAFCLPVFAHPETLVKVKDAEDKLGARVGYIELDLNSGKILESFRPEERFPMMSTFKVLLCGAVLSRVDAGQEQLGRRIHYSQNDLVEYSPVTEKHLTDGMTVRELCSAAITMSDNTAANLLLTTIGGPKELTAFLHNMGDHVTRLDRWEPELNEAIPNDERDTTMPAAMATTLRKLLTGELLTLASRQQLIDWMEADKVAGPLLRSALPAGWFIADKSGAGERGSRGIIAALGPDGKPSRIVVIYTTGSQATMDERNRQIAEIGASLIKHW

[6] = target: T1, Sentrin-specific protease 8 (Homo sapiens, UniProt Q96LD8); test: inhibition of human SENP8 cleavage activity – biochemical, luminescence, SAR follow-up (AID 504501); format: functional
T1 sequence (Q96LD8 whole entry): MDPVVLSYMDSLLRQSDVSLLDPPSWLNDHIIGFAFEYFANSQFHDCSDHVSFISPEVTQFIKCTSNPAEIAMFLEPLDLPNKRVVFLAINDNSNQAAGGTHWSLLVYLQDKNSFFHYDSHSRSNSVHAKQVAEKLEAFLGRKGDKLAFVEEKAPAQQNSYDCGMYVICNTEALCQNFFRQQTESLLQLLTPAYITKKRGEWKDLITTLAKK

Caspase-3 [7] = target: T2, Caspase-3 (Homo sapiens, UniProt P42574); test: inhibition of recombinant caspase-3 activity – biochemical, luminescence, set 2, selectivity assay for SENP protease inhibitor project, SAR follow-up (AID 588599); format: functional
T2 sequence (P42574 whole entry): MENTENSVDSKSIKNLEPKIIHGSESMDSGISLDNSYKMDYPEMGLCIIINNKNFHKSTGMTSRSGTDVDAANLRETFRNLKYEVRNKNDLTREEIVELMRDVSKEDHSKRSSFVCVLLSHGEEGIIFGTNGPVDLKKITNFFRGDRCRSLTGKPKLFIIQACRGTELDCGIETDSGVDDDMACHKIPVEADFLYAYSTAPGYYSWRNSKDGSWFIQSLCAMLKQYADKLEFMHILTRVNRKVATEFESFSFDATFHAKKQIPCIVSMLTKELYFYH

[8] = target: T1, Sentrin-specific protease 8; test: inhibition of sentrin protease 8 – biochemical, luminescence, set 2, SAR follow-up (AID 588601); format: functional
Caspase-3 [9] = target: T2, Caspase-3; test: SAR Analysis of small molecule inhibitors of Sentrin-specific proteases (SENPs) using a Caspase-3 Selectivity assay. [Related pubchem assays (depositor defined):AID2540, AID2599, AID434973, AID489001]; format: functional
[10] = target: T3, Sentrin-specific protease 6 (Homo sapiens, UniProt Q9GZR1); test: SAR Analysis of small molecule inhibitors of Sentrin-specific protease 6 (SENP6) using a Luminescent assay. [Related pubchem assays (depositor defined):AID2582, AID2599]; format: functional
T3 sequence (Q9GZR1 whole entry): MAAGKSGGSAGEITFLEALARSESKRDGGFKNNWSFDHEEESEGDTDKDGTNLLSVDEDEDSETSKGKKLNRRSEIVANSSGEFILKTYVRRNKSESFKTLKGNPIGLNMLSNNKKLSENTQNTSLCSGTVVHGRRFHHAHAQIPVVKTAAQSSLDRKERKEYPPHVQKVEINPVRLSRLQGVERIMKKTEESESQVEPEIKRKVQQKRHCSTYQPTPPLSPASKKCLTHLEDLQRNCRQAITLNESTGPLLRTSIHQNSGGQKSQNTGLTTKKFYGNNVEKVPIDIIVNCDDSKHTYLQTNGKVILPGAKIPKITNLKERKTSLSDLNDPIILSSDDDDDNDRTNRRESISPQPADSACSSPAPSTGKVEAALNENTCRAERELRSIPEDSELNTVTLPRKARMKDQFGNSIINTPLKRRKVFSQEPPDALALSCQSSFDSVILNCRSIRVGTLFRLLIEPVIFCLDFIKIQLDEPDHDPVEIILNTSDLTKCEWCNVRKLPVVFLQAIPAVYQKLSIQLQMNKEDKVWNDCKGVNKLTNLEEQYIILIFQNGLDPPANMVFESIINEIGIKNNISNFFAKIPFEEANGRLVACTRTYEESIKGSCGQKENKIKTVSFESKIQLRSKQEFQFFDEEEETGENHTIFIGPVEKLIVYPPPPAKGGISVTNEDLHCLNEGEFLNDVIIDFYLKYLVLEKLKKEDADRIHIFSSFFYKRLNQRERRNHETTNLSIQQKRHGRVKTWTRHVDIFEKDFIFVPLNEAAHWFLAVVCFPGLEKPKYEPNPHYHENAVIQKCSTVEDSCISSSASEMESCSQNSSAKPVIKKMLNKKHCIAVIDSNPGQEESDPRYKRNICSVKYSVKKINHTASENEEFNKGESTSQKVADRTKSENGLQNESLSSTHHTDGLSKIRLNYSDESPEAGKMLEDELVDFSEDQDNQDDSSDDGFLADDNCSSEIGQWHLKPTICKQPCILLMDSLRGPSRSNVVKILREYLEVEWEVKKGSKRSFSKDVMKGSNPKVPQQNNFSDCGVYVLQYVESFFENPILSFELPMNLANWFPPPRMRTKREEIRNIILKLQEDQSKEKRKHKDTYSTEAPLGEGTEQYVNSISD

[11] = target: T3, Sentrin-specific protease 6; test: inhibition of human SENP6 catalytic domain – biochemical, luminescence, set 2, SAR follow-up (AID 588598); format: functional
[12] = target: T4, Sentrin-specific protease 7 (Homo sapiens, UniProt Q9BQF6); test: inhibition of human SENP7 cleavage activity – biochemical, luminescence, SAR follow-up (AID 504497); format: functional
T4 sequence (Q9BQF6 whole entry): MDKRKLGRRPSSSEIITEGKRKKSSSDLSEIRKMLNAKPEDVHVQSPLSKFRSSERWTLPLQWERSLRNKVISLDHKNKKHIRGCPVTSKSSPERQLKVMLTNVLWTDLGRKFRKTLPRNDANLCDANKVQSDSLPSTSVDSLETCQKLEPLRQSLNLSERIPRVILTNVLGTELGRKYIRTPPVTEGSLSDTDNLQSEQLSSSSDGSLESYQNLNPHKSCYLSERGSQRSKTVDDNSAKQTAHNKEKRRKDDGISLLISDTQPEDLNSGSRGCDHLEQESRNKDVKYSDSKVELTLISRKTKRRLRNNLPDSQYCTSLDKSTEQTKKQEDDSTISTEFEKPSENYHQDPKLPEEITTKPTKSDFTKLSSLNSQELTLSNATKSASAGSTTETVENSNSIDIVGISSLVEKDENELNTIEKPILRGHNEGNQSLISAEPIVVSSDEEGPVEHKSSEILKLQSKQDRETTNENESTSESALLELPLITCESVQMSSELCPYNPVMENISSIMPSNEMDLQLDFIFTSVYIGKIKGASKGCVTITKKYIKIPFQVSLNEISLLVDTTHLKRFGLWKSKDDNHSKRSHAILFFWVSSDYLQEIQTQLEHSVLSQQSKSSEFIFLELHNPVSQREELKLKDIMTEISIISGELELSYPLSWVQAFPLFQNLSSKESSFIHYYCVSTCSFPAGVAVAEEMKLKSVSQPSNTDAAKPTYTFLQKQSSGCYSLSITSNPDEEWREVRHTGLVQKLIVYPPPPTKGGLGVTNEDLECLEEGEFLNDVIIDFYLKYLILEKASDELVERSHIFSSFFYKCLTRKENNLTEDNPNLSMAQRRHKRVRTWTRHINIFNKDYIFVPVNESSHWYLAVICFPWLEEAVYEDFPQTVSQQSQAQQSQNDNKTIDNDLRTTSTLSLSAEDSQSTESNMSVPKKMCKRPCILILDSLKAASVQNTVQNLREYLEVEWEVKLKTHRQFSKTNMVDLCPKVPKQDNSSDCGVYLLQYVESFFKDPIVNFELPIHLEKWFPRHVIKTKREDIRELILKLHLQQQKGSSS

[13] = target: DNA dC->dU-editing enzyme APOBEC-3G (Homo sapiens, UniProt Q9HC16); test: inhibition of APOBEC3G ssDNA deamination – biochemical, fluorescence, single-stranded DNA substrate, SAR follow-up (AID 602136); format: functional; settings: read-out: IC50_Mean
Sequence of DNA dC->dU-editing enzyme APOBEC-3G (Q9HC16 whole entry): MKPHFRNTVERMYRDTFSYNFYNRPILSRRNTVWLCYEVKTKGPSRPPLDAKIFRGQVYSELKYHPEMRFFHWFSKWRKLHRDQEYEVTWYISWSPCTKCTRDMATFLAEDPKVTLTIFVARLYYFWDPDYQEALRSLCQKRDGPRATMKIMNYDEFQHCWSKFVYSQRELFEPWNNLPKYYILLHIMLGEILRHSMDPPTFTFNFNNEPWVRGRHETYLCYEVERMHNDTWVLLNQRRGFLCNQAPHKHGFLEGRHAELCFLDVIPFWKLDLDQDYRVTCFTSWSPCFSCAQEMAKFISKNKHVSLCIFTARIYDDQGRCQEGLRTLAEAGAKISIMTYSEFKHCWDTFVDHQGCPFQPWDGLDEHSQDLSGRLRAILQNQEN

[14] = target: DNA dC->dU-editing enzyme APOBEC-3A (Homo sapiens, UniProt P31941); test: SAR analysis of small molecule inhibitors of APOBEC3A DNA Deaminase via a fluorescence-based single-stranded DNA deaminase assay.; format: functional; settings: read-out: IC50_Mean
Sequence of DNA dC->dU-editing enzyme APOBEC-3A (P31941 whole entry): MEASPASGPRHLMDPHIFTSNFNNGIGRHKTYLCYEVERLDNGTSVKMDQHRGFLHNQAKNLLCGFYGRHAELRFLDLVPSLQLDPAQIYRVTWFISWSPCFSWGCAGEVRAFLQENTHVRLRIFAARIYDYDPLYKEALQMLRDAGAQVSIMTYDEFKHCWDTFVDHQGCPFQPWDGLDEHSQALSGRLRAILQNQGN

Sequence of Latent membrane protein 1 (P03230 whole entry, the tested form may be a part): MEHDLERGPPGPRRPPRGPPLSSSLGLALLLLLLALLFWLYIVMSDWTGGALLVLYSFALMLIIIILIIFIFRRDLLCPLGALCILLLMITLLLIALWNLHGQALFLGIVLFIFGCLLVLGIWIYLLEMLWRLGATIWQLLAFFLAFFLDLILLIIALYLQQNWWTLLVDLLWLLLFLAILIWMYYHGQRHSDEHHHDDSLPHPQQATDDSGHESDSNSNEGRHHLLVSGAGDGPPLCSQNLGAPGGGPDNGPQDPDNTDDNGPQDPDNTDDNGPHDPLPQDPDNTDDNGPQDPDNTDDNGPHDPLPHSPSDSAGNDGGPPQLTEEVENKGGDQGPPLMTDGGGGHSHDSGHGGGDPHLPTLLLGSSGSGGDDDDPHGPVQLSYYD

Structure (SMILES): COc1ccc(CN(C(=O)c2nsc(Cl)c2Cl)C(C(=O)NC2CCCC2)c2ccc(C)cc2)cc1 (configuration not stated)
- AC50 [1]: 27.6 µM (active)
- IC50 [2]: > 69.5 µM (inactive)
- IC50 [3]: > 7.72 µM (active)

Structure (SMILES): CC(=O)Oc1ccc(N2C(=O)c3cccc4c([N+](=O)[O-])ccc(c34)C2=O)cc1
- CC50 [4]: 6.74 µM (active)
- CC50 [5]: > 20 µM (active)
- IC50 (cells): 9.16 µM (active)
- IC50 (CHO): 6.34 µM (active)
- IC50 (Beta Lactamase): 4.06 µM (active)

Structure (SMILES): COc1ccccc1OCc1nc(-c2ccccc2Cl)no1
- IC50 [6]: 4.9 µM (active)
- IC50 (Caspase-3 [7]): 3.23 µM (active)
- IC50 [8]: 2 µM (active)
- IC50 (Caspase-3 [9]): 2.9 µM (active)
- IC50 [10]: 4.7 µM (active)
- IC50 [11]: 2.08 µM (active)
- IC50 [12]: 2.1 µM (active)

Structure (SMILES): COc1ccc(-c2nnc(SCc3coc(-c4cccs4)n3)[nH]2)cc1
- IC50 [13]: > 99 µM (inactive)
- IC50 [14]: > 99 µM (inactive)
